Key:
[1] = test system: Mes-Sa mCherry uterine sarcoma cell line; assay: Triple coculture fluorescence cytotoxicity test, parental line; type: cell-based, human; settings: 144 h incubation, fluorescence readout
Protocol: (§1) All synthesized complexes and representatives of the respective ligands (Lb, Lc, SIPr, IPr) were tested in a triple coculture of uterine sarcoma cell lines, consisting of the parental Mes-Sa cell line, and its MDR derivatives Mes-Sa/B1 and Mes-Sa/Dx5, transfected or selected in doxorubicin to overexpress P-glycoprotein, respectively (Figure 2a–c, Table S2). Each cell line expresses a distinct fluorescent protein (mCherry, mOrange, and eGFP, respectively), and the total fluorescence of a well is proportional to the cell number, allowing the assessment of compound cytotoxicity.
(§2) In a triple coculture system, cell lines expressing different fluorescent proteins were seeded in the same well. Cell lines (Mes-Sa mCherry, Mes-Sa/B1 mOrange, Mes-Sa/Dx5 eGFP [25]) were admixed and seeded on 384-well plates at a density of 3 × 800 cells/well (1:1:1 ratio), resulting in an overall total of 2400 cells. The next day, serially diluted compounds were added to the wells. Liquid handling was managed by a Hamilton StarLet pipetting robot. After 144 h of incubation, the fluorescence of mCherry (ex/em: 585/610 nm), mOrange (ex/em: 545/567 nm) and eGFP (ex/em: 485/510 nm) was recorded with an EnSpire plate reader (PerkinElmer, Waltham, MA, USA).
(§3) pIC50 values derived from both co- and monoculture systems were determined by a custom program written in C# [25], then average and standard deviations were calculated and transformed to IC50 values. Every compound was tested in at least 3 independent experiments in triplicates.

Mes-Sa/B1 mOrange = assay: Triple coculture fluorescence cytotoxicity test, ABCB1-transfected MDR line; type: cell-based, human; settings: for RR_B1 resistance ratio (IC50_MDR line / IC50_parental line) of Mes-Sa/B1: Mes-Sa/B1 vs Mes-Sa; for IC50: triple coculture, 144 h incubation, fluorescence readout
Protocol: as §1, §2, §3

Mes-Sa/Dx5 eGFP = assay: Triple coculture fluorescence cytotoxicity test, doxorubicin-selected MDR line; type: cell-based, human; settings: for RR_Dx5 resistance ratio (IC50_MDR line / IC50_parental line) of Mes-Sa/Dx5: Mes-Sa/Dx5 vs Mes-Sa; for IC50: triple coculture, 144 h incubation, fluorescence readout
Protocol: as §1, §2, §3

[2] = test system: CST murine breast cancer cell line; assay: Monoculture PrestoBlue cytotoxicity test, CST; type: cell-based, mouse; settings: 120 h exposure
Protocol: (§4) CST, a drug-naïve murine breast cancer cell line, and cisplatin-resistant cells CST-2/3 were seeded in monoculture into 384-well plates (Corning Inc., Corning, NY, USA) at a density of 2500 cells per well using automated liquid-handling. The cells were preincubated for 24 h to ensure adherence, followed by the addition of serially diluted compounds to a final well volume of 60 µL. Following 120 h of continuous drug exposure, cell viability was quantified using the PrestoBlue viability assay (Thermo Fisher Scientific, Waltham, MA, USA) after 1 h incubation at 555 nm excitation and 585 nm emission wavelengths.
as §3

[3] = test system: CST-2/3 cisplatin-resistant cells; assay: Monoculture PrestoBlue cytotoxicity test, cisplatin-resistant CST-2/3; type: cell-based, mouse; settings: for RR_CST resistance ratio (IC50_CST-2/3 / IC50_CST): CST-2/3 vs CST; for IC50: monoculture, 120 h exposure, PrestoBlue
Protocol: as §4, §3

[4] = test system: MSCL-1 mesenchymal stem cell-like cell line; assay: PrestoBlue cytotoxicity test, non-malignant MSCL-1; type: cell-based, human; settings: for IC50: 72 h treatment, PrestoBlue; for MSCL-1 / CST ratio (IC50_MSCL-1/IC50_cancer line): MSCL-1 vs CST; for MSCL-1 / Mes-Sa ratio (IC50_MSCL-1/IC50_cancer line): MSCL-1 vs Mes-Sa
Protocol: The MSCL-1 line was seeded on 96-well plates with 15,000 cells/well density, and the following day, it was treated with the compounds for 72 h, when cell viability was assessed using a PrestoBlue viability assay.
as §3

Mes-Sa cells = assay: H2DCFDA intracellular ROS assay in Mes-Sa; type: cell-based, human; settings: 25 µM, 4 h incubation
Protocol: (§5) Intracellular ROS production was assessed by the H2DCFDA—Cellular ROS Assay Kit (ab113851, Abcam, Cambridge, UK) according to the manufacturer’s instructions. Briefly, 20,000 cells (Mes-Sa and CST) were seeded on 96-well plates 1 day prior to the experiment. The cells were washed and incubated with H2DCFDA solution for 45 min in the dark. Following an additional washing step, test compounds were added in complete, phenol red free medium (FluoroBrite™, Thermo Fisher Scientific), at a final concentration of 25 µM. Fluorescence of 2′,7′-dichlorofluorescein (DCF) was measured at 484 nm/535 nm excitation/emission wavelengths. Data were normalized to baseline (0 h) values and represent at least three independent experiments.

CST cells = assay: H2DCFDA intracellular ROS assay in CST; type: cell-based, mouse; settings: 25 µM, 4 h incubation
Protocol: as §5

Structure (SMILES) | IC50 [1] | RR_B1 resistance ratio (IC50_MDR line / IC50_parental line) of Mes-Sa/B1 (Mes-Sa/B1 mOrange) | IC50 (Mes-Sa/B1 mOrange) | RR_Dx5 resistance ratio (IC50_MDR line / IC50_parental line) of Mes-Sa/Dx5 (Mes-Sa/Dx5 eGFP) | IC50 (Mes-Sa/Dx5 eGFP) | IC50 [2] | RR_CST resistance ratio (IC50_CST-2/3 / IC50_CST) [3] | IC50 [3] | IC50 [4] | MSCL-1 / CST ratio (IC50_MSCL-1/IC50_cancer line) [4] | MSCL-1 / Mes-Sa ratio (IC50_MSCL-1/IC50_cancer line) [4] | intracellular ROS induction compared to serum-containing medium (in words) (Mes-Sa cells) | intracellular ROS induction compared to untreated control (in words) (CST cells) | further results
CC(C)c1cccc(C(C)C)c1N1CCN(c2c(C(C)C)cccc2C(C)C)[C]1=[Au][Cl] [Compound 7a] | 8.45 µM | 1.7 | 14.5 µM | 2.2 | 18.5 µM | 12.2 µM | 1.0 | 12.6 µM | 25.7 µM | 2.1 | 3.0 | did not significantly induce | No significant ROS induction | 
CC(C)c1cccc(C(C)C)c1N1CCN(c2c(C(C)C)cccc2C(C)C)[C]1=[Cu+]=[C]1N(c2c(C(C)C)cccc2C(C)C)CCN1c1c(C(C)C)cccc1C(C)C.F[B-](F)(F)F [Compound 9a] | 0.072 µM | 11.6 | 0.84 µM | 14.3 | 1.04 µM | 0.11 µM | 2.2 | 0.24 µM | 0.81 µM | 7.3 | 11.2 |  |  | increase in intracellular ROS (Mes-Sa cells; vs 0 h): 99%; increase in intracellular ROS (CST cells; vs 0 h): 61%
CC(C)c1cccc(C(C)C)c1N1CCN(c2c(C(C)C)cccc2C(C)C)[C]1=[Ag+]=[C]1N(c2c(C(C)C)cccc2C(C)C)CCN1c1c(C(C)C)cccc1C(C)C.F[B-](F)(F)F [Compound 10a] | 0.036 µM | 79.5 | 2.84 µM | 162.2 | 5.79 µM | 0.092 µM | 2.4 | 0.218 µM | 0.56 µM | 6.1 | 15.7 | did not significantly induce | No significant ROS induction | 
CC(C)c1cccc(C(C)C)c1N1C=[N+](c2c(C(C)C)cccc2C(C)C)CC1 [SIPr, reference compound] |  | 10.9 |  | 20.9 |  |  | 3.4 |  |  | 2.0 | 2.3 | did not significantly induce | No significant ROS induction | IC50 ([1]; Homo sapiens, MES-SA): 5.05 µM; IC50 (Mes-Sa/B1 mOrange; Homo sapiens, MES-SA): 55 µM; IC50 (Mes-Sa/Dx5 eGFP; Homo sapiens, MES-SA/Dx5): 106 µM; IC50 ([2]; Mus musculus): 5.92 µM; IC50 ([3]; Mus musculus): 20.3 µM; IC50 ([4]; Homo sapiens): 11.7 µM
